Data: the NIST ThermoML archive (doi:10.1016/j.jct.2016.02.025)

Experiments:
[1] = refractive index (Na D-line) (dimensionless); conditions: 100 kPa, Standard Abbe refractometry
[2] = 100 kPa; for speed of sound: Frequency=3 MHz, Sing-around technique in a fixed-path interferometer; for mass density: Vibrating tube method

CCCCCCCCn1cc[n+](C)c1.[Br-] [1-methyl-3-octylimidazolium bromide]
Liquid
Conditions	mass density, [2] [kg/m3]	refractive index, [1]	speed of sound, [2] [m/s]
293.15 K	1179.3	1.498	1481.8
298.15 K	1175.69	1.49656	1467.6
303.15 K	1172.08	1.49502	1454.3
308.15 K	1168.54	1.49347	1441.4
313.15 K	1165.04	1.49176	1428.8
318.15 K	1161.52	1.49008	1416.5
323.15 K	1157.99	1.48842	1404.4

CCCCn1cc[n+](C)c1.[Br-] [1-butyl-3-methylimidazolium bromide]
Metastable liquid
Conditions	mass density, [2] [kg/m3]	refractive index, [1]	speed of sound, [2] [m/s]
293.15 K	1293.44	1.54699	1675.2
298.15 K	1290.02	1.54575	1665.7
303.15 K	1286.59	1.54445	1656
308.15 K	1283.16	1.54312	1646
313.15 K	1279.72	1.54186	1636.1
318.15 K	1276.28	1.54052	1626.7
323.15 K	1272.84	1.53928	1616.8

CCCCCCn1cc[n+](C)c1.[Br-] [3-hexyl-1-methyl-1H-imidazolium bromide]
Liquid
Conditions	mass density, [2] [kg/m3]	refractive index, [1]	speed of sound, [2] [m/s]
293.15 K	1227.46	1.51183	1609.1
298.15 K	1223.74	1.50982	1588.1
303.15 K	1220.31	1.50796	1570.4
308.15 K	1216.69	1.50612	1552.3
313.15 K	1213.05	1.50427	1534.4
318.15 K	1209.41	1.50232	1517.4
323.15 K	1205.58	1.50047	1500
